From patent publication US11845714B2, “Process for producing taurine” (Vitaworks IP, LLC, priority 2014, dated 2023)

Conditions: 25% aqueous ammonia at room temperature

solubility in 25% aqueous ammonia: 36 g in 100 g
SMILES: NCCS(=O)(=O)O [Taurine, 2-aminoethanesulfonic acid]
